From patent US20140037719A1, “STABILIZED PHARMACEUTICAL FORMULATIONS OF A POTENT HCV INHIBITOR” (Robert Majeska, priority 2012, published 2014)

Experiment: Ames test / genotoxicity of degradation product
Type: cell-based

**Q.** With C=C[C@@H]1C[C@]1(N)C(=O)O [Compound X] as the compound, how does the Ames result read?
**A.** Ames positive

**Q.** And the genotoxicity?
**A.** genotoxic
